Values of other authors as cited in article PMC5289470, “The biodistribution of 5-[^18F]fluoropyrazinamide in Mycobacterium tuberculosis-infected mice determined by positron emission tomography” (PLoS ONE, 2017).

Test system: PZA-resistant M. tuberculosis isolates
Details: ref [14], [30]; cited from earlier work

NC(=O)c1cnc(Cl)cn1 [5-Cl-PZA, 5-Chloropyrazinamide]
in vitro activity against PZA-resistant M. tuberculosis isolates: has in vitro activity
